What was measured:
[1] = tested on: lambsquarters; assay: Test B pre-/postemergence herbicide test; type: in vivo, Chenopodium album
Method in brief: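 Evaluation is visual, comparing treated with control plants on a scale where 0 means no effect and 100 means full control. Treatments were preemergence, or postemergence on seedlings 2–18 cm tall, and held 13–15 days in the greenhouse.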

[2] = tested on: cocklebur; assay: Test B pre-/postemergence herbicide test; type: in vivo, Xanthium strumarium
Method in brief: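 Herbicidal effect was judged by eye on a 0–100 scale after plants stood 13 to 15 days in the greenhouse following pre- or postemergence treatment with surfactant-containing formulations.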

[3] = tested on: pigweed; assay: Test C pre-/postemergence herbicide test; type: in vivo, Amaranthus retroflexus
Method in brief: (§1)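 Emerged plants at the 1- to 4-leaf stage (2–18 cm), or freshly planted seeds, received test chemicals in a non-phytotoxic solvent mixture with surfactant. Response was visually scored against controls after 12 to 14 days in the greenhouse, on a 0 (no effect) to 100 (complete control) scale.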

[4] = tested on: large crabgrass; assay: Test A pre-/postemergence herbicide test; type: in vivo, Digitaria sanguinalis
Method in brief: (§2)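 Both application timings were run together: directed soil spray over freshly planted seeds in sandy loam, and runoff spray onto 2–10 cm seedlings. Evaluation after ~10 days in greenhouse used a 0–100 visual scale versus untreated controls.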

[5] = tested on: johnsongrass; assay: Test C pre-/postemergence herbicide test; type: in vivo, Sorghum halepense
Method in brief: as §1

[6] = tested on: giant foxtail; assay: Test A pre-/postemergence herbicide test; type: in vivo, Setaria faberi
Method in brief: as §2

[7] = tested on: woolly cupgrass; assay: Test C pre-/postemergence herbicide test; type: in vivo, Eriochloa villosa
Method in brief: as §1

[8] = tested on: lambsquarters; assay: Test C pre-/postemergence herbicide test; type: in vivo, Chenopodium album
Method in brief: as §1

[9] = tested on: Surinam grass; assay: Test C pre-/postemergence herbicide test; type: in vivo, Urochloa decumbens
Method in brief: as §1

[10] = 500 g ai/ha, visual rating 0-100, 0 no effect, 100 complete control, preemergence
[11] = postemergence, 125 g ai/ha, visual rating, scale 0 (no effect) to 100 (complete control)
[12] = postemergence, 500 g ai/ha, visual rating, scale 0 (no effect) to 100 (complete control)
[13] = preemergence, 125 g ai/ha, 0 to 100 scale, 0 is no effect, 100 is complete control
[14] = 125 g ai/ha, scale 0 (no effect) to 100 (complete control), visual, 12 to 14 days, preemergence
[15] = Preemergence, 500 g ai/ha, scale 0 to 100, 0 no effect, 100 complete control
[16] = Postemergence, 250 g ai/ha, 0 to 100 scale, 0 no effect, 100 complete control
[17] = Postemergence, 1000 g ai/ha, 0 to 100 scale, 0 no effect, 100 complete control
[18] = Preemergence, 1000 g ai/ha, visual rating, 0 to 100 scale (0 no effect, 100 complete control)
[19] = preemergence, 250 g ai/ha, visual injury, 0 to 100 scale (0 no effect, 100 complete control)
[20] = 250 g ai/ha, scale 0 to 100 (0 no effect, 100 complete control), visual, 12 to 14 days, preemergence
[21] = 125 g ai/ha, 0 is no effect, 100 is complete control, preemergence
[22] = Postemergence, 500 g ai/ha, scale 0 (no effect) to 100 (complete control)
[23] = postemergence, 125 g ai/ha, scale 0 to 100
[24] = 62 g ai/ha, preemergence, scale 0 to 100
[25] = 500 g ai/ha, scale 0 to 100 (0 no effect, 100 complete control), visual, 12 to 14 days, preemergence
[26] = Postemergence, 500 g ai/ha, 0 to 100 scale, 0 no effect, 100 complete control
[27] = Postemergence, 2000 g ai/ha, 0 to 100 scale, 0 no effect, 100 complete control
[28] = Preemergence, 2000 g ai/ha, visual rating, 0 to 100 scale (0 no effect, 100 complete control)
[29] = preemergence, 500 g ai/ha, visual injury, 0 to 100 scale (0 no effect, 100 complete control)
[30] = 250 g ai/ha, scale 0-100, preemergence
[31] = Postemergence, 500 g ai/ha, visual rating after 13 to 15 days, scale 0 (no effect) to 100 (complete control)
[32] = 31 g ai/ha, preemergence, scale 0 to 100
[33] = Postemergence, 250 g ai/ha, scale 0 to 100, 0 no effect, 100 complete control
[34] = postemergence, 62 g ai/ha, scale 0 to 100
[35] = Preemergence, 500 g ai/ha, visual rating, 0 to 100 scale (0 no effect, 100 complete control)
[36] = Preemergence, 2000 g ai/ha, 0 to 100 scale, 0 no effect, 100 complete control
[37] = 125 g ai/ha, 0 = no effect, 100 = complete control, preemergence
[38] = 500 g ai/ha, visual rating, 0 = no effect, 100 = complete control, preemergence

Compound: CCn1nc(C(C)(C)C)cc1C(=O)Nc1cccc(S(=O)(=O)C(F)(F)F)c1 [Compound 134]
- Plant response rating, Lambsquarters [1, 10]: 100
- Lambsquarters plant response rating [1, 11]: 80
- Lambsquarters plant response rating [1, 12]: 90
- Plant response rating, Lambsquarters [1, 13]: 100
- Plant response rating, Cocklebur [2, 10]: 0
- Cocklebur plant response rating [2, 11]: 80
- Cocklebur plant response rating [2, 12]: 100
- Plant response rating, Cocklebur [2, 13]: 0
- Plant response rating (0 = no effect, 100 = complete control), Pigweed ([3]; 62 g ai/ha, preemergence): 95
- Plant response rating, Pigweed [3, 14]: 95
- Pigweed plant response rating [3, 15]: 100
- Crabgrass, Large plant response rating [4, 16]: 20
- Plant response rating, Crabgrass, Large [4, 17]: 35
- Crabgrass, Large plant response rating [4, 18]: 95
- Crabgrass, Large plant response rating [4, 19]: 35
- Plant response rating (0 = no effect, 100 = complete control), Johnsongrass ([5]; 62 g ai/ha, preemergence): 0
- Plant response rating, Johnsongrass [5, 14]: 40
- Johnsongrass plant response rating [5, 15]: 65
- Foxtail, Giant plant response rating [6, 16]: 15
- Plant response rating, Foxtail, Giant [6, 17]: 35
- Foxtail, Giant plant response rating [6, 18]: 45
- Foxtail, Giant plant response rating [6, 19]: 20
- Plant response rating (0 = no effect, 100 = complete control), Cupgrass, Woolly ([7]; 62 g ai/ha, preemergence): 0
- Plant response rating, Cupgrass, Woolly [7, 14]: 0
- Plant response rating, Cupgrass, Woolly [7, 20]: 20
- Cupgrass, Woolly plant response rating [7, 15]: 45
- Plant response rating (0 = no effect, 100 = complete control), Lambsquarters ([8]; 62 g ai/ha, preemergence): 100
- Plant response rating, Lambsquarters [8, 14]: 100
- Lambsquarters plant response rating [8, 15]: 100
- Plant response rating (0 = no effect, 100 = complete control), Surinam Grass ([9]; 62 g ai/ha, preemergence): 0
- Plant response rating, Surinam Grass [9, 14]: 15
- Surinam Grass plant response rating [9, 15]: 75

Compound: CCc1nn(C(C)(C)C)nc1C(=O)Nc1cccc(C(=O)NC2CC2)c1 [Compound 417]
- Plant response rating (0 to 100 scale), Lambsquarters [1, 21]: 90
- Lambsquarters plant response rating [1, 22]: 80
- Lambsquarters plant response rating [1, 23]: 70
- Plant response rating (0 to 100 scale), Cocklebur [2, 21]: 0
- Cocklebur plant response rating [2, 22]: 40
- Cocklebur plant response rating [2, 23]: 20
- Plant response rating, Pigweed [3, 24]: 100
- Plant response rating (0 = no effect, 100 = complete control), Pigweed ([3]; 125 g ai/ha, preemergence): 100
- Plant response rating, Pigweed [3, 25]: 100
- Crabgrass, Large plant response rating [4, 26]: 30
- Plant response rating, Crabgrass, Large [4, 27]: 85
- Crabgrass, Large plant response rating [4, 28]: 95
- Crabgrass, Large plant response rating [4, 29]: 75
- Plant response rating, Johnsongrass [5, 24]: 100
- Plant response rating (0 = no effect, 100 = complete control), Johnsongrass ([5]; 125 g ai/ha, preemergence): 100
- Plant response rating, Johnsongrass [5, 30]: 100
- Plant response rating, Johnsongrass [5, 25]: 100
- Foxtail, Giant plant response rating [6, 26]: 75
- Plant response rating, Foxtail, Giant [6, 27]: 85
- Foxtail, Giant plant response rating [6, 28]: 100
- Foxtail, Giant plant response rating [6, 29]: 90
- Plant response rating, Cupgrass, Woolly [7, 24]: 0
- Plant response rating (0 = no effect, 100 = complete control), Cupgrass, Woolly ([7]; 125 g ai/ha, preemergence): 20
- Plant response rating, Cupgrass, Woolly [7, 30]: 65
- Plant response rating, Cupgrass, Woolly [7, 25]: 85
- Plant response rating, Lambsquarters [8, 24]: 95
- Plant response rating (0 = no effect, 100 = complete control), Lambsquarters ([8]; 125 g ai/ha, preemergence): 100
- Plant response rating, Lambsquarters [8, 30]: 100
- Plant response rating, Lambsquarters [8, 25]: 100
- Plant response rating, Surinam Grass [9, 24]: 0
- Plant response rating (0 = no effect, 100 = complete control), Surinam Grass ([9]; 125 g ai/ha, preemergence): 75
- Plant response rating, Surinam Grass [9, 25]: 95

Compound: CCn1nc(C(C)(C)C)cc1C(=O)Nc1ccc(F)c(C(=O)NCCF)c1 [Compound 60]
- Plant response rating, Lambsquarters [1, 31]: 90
- Lambsquarters plant response rating [1, 11]: 80
- Plant response rating, Lambsquarters [1, 13]: 90
- Plant response rating, Cocklebur [2, 31]: 70
- Cocklebur plant response rating ([2]; Preemergence, 500 g ai/ha, scale 0 to 100): 0
- Cocklebur plant response rating [2, 11]: 40
- Plant response rating, Cocklebur [2, 13]: 0
- Plant response rating, Pigweed [3, 32]: 100
- Plant response rating (0 = no effect, 100 = complete control), Pigweed ([3]; 62 g ai/ha, preemergence): 100
- Plant response rating, Pigweed [3, 14]: 100
- Plant response rating, Pigweed [3, 20]: 100
- Plant response rating, Pigweed [3, 33]: 60
- Plant response rating, Pigweed [3, 23]: 40
- Plant response rating, Pigweed [3, 34]: 40
- Plant response rating, Crabgrass, Large [4, 26]: 20
- Plant response rating, Crabgrass, Large [4, 27]: 55
- Crabgrass, Large plant response rating [4, 35]: 75
- Crabgrass, Large plant response rating [4, 36]: 95
- Plant response rating, Johnsongrass [5, 32]: 5
- Plant response rating (0 = no effect, 100 = complete control), Johnsongrass ([5]; 62 g ai/ha, preemergence): 10
- Plant response rating, Johnsongrass [5, 14]: 50
- Plant response rating, Johnsongrass [5, 20]: 60
- Plant response rating, Johnsongrass [5, 33]: 0
- Plant response rating, Johnsongrass [5, 23]: 0
- Plant response rating, Johnsongrass [5, 34]: 0
- Plant response rating, Foxtail, Giant [6, 26]: 30
- Plant response rating, Foxtail, Giant [6, 27]: 60
- Foxtail, Giant plant response rating [6, 35]: 55
- Foxtail, Giant plant response rating [6, 36]: 90
- Plant response rating, Cupgrass, Woolly [7, 32]: 0
- Plant response rating (0 = no effect, 100 = complete control), Cupgrass, Woolly ([7]; 62 g ai/ha, preemergence): 0
- Plant response rating, Cupgrass, Woolly [7, 14]: 10
- Plant response rating, Cupgrass, Woolly [7, 20]: 70
- Plant response rating, Cupgrass, Woolly [7, 33]: 5
- Plant response rating, Cupgrass, Woolly [7, 23]: 5
- Plant response rating, Cupgrass, Woolly [7, 34]: 0
- Plant response rating, Lambsquarters [8, 32]: 90
- Plant response rating (0 = no effect, 100 = complete control), Lambsquarters ([8]; 62 g ai/ha, preemergence): 100
- Plant response rating, Lambsquarters [8, 14]: 100
- Plant response rating, Lambsquarters [8, 20]: 100
- Plant response rating, Lambsquarters [8, 33]: 70
- Plant response rating, Lambsquarters [8, 23]: 30
- Plant response rating, Lambsquarters [8, 34]: 10
- Plant response rating, Surinam Grass [9, 32]: 0
- Plant response rating (0 = no effect, 100 = complete control), Surinam Grass ([9]; 62 g ai/ha, preemergence): 0
- Plant response rating, Surinam Grass [9, 14]: 0
- Plant response rating, Surinam Grass [9, 20]: 50
- Plant response rating, Surinam Grass [9, 33]: 5
- Plant response rating, Surinam Grass [9, 23]: 5
- Plant response rating, Surinam Grass [9, 34]: 5

Compound: CCc1nc(C(C)(C)C)sc1C(=O)Nc1cccc(C(=O)NCC2CC2)n1 [Compound 215]
- Lambsquarters plant response rating (0 to 100 scale) [1, 37]: 90
- Plant response rating, Lambsquarters [1, 38]: 100
- Lambsquarters plant response rating [1, 11]: 0
- Lambsquarters plant response rating [1, 12]: 0
- Cocklebur plant response rating (0 to 100 scale) [2, 37]: 0
- Plant response rating, Cocklebur [2, 38]: 0
- Cocklebur plant response rating [2, 11]: 20
- Cocklebur plant response rating [2, 12]: 80
- Plant response rating, Pigweed [3, 24]: 80
- Plant response rating, Pigweed [3, 14]: 100
- Plant response rating, Pigweed [3, 30]: 100
- Plant response rating, Pigweed [3, 25]: 100
- Crabgrass, Large plant response rating [4, 26]: 20
- Plant response rating, Crabgrass, Large [4, 27]: 30
- Crabgrass, Large plant response rating [4, 28]: 55
- Crabgrass, Large plant response rating [4, 29]: 30
- Plant response rating, Johnsongrass [5, 24]: 0
- Plant response rating, Johnsongrass [5, 14]: 20
- Plant response rating, Johnsongrass [5, 30]: 50
- Plant response rating, Johnsongrass [5, 25]: 85
- Foxtail, Giant plant response rating [6, 26]: 25
- Plant response rating, Foxtail, Giant [6, 27]: 40
- Foxtail, Giant plant response rating [6, 28]: 75
- Foxtail, Giant plant response rating [6, 29]: 50
- Plant response rating, Cupgrass, Woolly [7, 24]: 0
- Plant response rating, Cupgrass, Woolly [7, 14]: 10
- Plant response rating, Cupgrass, Woolly [7, 30]: 40
- Plant response rating, Cupgrass, Woolly [7, 25]: 50
- Plant response rating, Lambsquarters [8, 24]: 100
- Plant response rating, Lambsquarters [8, 14]: 100
- Plant response rating, Lambsquarters [8, 30]: 100
- Plant response rating, Lambsquarters [8, 25]: 100
- Plant response rating, Surinam Grass [9, 24]: 0
- Plant response rating, Surinam Grass [9, 30]: 30
- Plant response rating, Surinam Grass [9, 25]: 50

Reference: patent publication US20060069132A1, “Azolecarboxamide herbicides” (priority 2004, published 2006)
